Measured values reported in PubChem BioAssay (NCI).
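Following 48 hours of exposure in 96-well plates, responses at five concentrations were used to interpolate endpoints linearly. Abbreviation: GI50, concentration required for 50% inhibition of growth. TGI denotes the concentration required for complete inhibition of growth.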

What was measured:
Test in all cases: growth of human tumour cells (NCI), 48 h
[1] = test system: TK-10 renal
[2] = test system: MOLT-4 leukemia
[3] = test system: NCI/ADR-RES ovarian
[4] = test system: MCF7 breast
[5] = test system: IGROV1 ovarian
[6] = test system: SK-MEL-28 melanoma
[7] = test system: SW-620 colon
[8] = test system: 786-0 renal
[9] = test system: DU-145 prostate
[10] = test system: NCI-H23 lung
[11] = test system: SN12C renal
[12] = test system: RPMI-8226 leukemia
[13] = test system: T-47D breast
[14] = test system: PC-3 prostate
[15] = test system: LOX IMVI melanoma
[16] = test system: UO-31 renal
[17] = test system: A498 renal
[18] = test system: BT-549 breast
[19] = test system: U251 CNS
[20] = test system: OVCAR-4 ovarian
[21] = test system: MALME-3M melanoma
[22] = test system: SF-268 CNS
[23] = test system: HOP-62 NSCLC
[24] = test system: UACC-257 melanoma
[25] = test system: A549 NSCLC
[26] = test system: UACC-62 melanoma
[27] = test system: RXF 393 renal
[28] = test system: K-562 leukemia

SMILES: O=C(NCCCCNC(=O)OCc1ccc2c(Cl)cc(Cl)c(O)c2n1)OCc1ccc2c(Cl)cc(Cl)c(O)c2n1
- GI50 [1]: 13.8 µM
- TGI [1]: > 100 µM
- GI50 [2]: 591 nM
- TGI [2]: > 100 µM
- GI50 [3]: 336 nM
- TGI [3]: > 100 µM
- GI50 [4]: 406 nM
- TGI [4]: > 100 µM
- GI50 [5]: 1220 nM
- TGI [5]: > 100 µM
- GI50 [6]: 809 nM
- TGI [6]: > 100 µM
- GI50 [7]: 486 nM
- TGI [7]: > 100 µM
- GI50 [8]: 4.95 µM
- TGI [8]: > 100 µM
- GI50 [9]: 855 nM
- TGI [9]: > 100 µM
- GI50 [10]: 1830 nM
- TGI [10]: > 100 µM
- GI50 [11]: 762 nM
- TGI [11]: > 100 µM
- GI50 [12]: 336 nM
- TGI [12]: > 100 µM
- GI50 [13]: 7.61 µM
- TGI [13]: > 100 µM
- GI50 [14]: 1640 nM
- TGI [14]: > 100 µM
- GI50 [15]: 720 nM
- TGI [15]: > 100 µM
- GI50 [16]: 1650 nM
- TGI [16]: > 100 µM
- GI50 [17]: 295 nM
- TGI [17]: 5.23 µM
- GI50 [18]: 2270 nM
- TGI [18]: > 100 µM
- GI50 [19]: 2840 nM
- TGI [19]: > 100 µM
- GI50 [20]: 4.47 µM
- TGI [20]: > 100 µM
- GI50 [21]: 2870 nM
- TGI [21]: > 100 µM
- GI50 [22]: 1250 nM
- TGI [22]: > 100 µM
- GI50 [23]: 2610 nM
- TGI [23]: > 100 µM
- GI50 [24]: 31.4 µM
- TGI [24]: > 100 µM
- GI50 [25]: 6.33 µM
- TGI [25]: > 100 µM
- GI50 [26]: 2210 nM
- TGI [26]: 86.7 µM
- GI50 [27]: 3.38 µM
- TGI [27]: > 100 µM
- GI50 [28]: 586 nM
- TGI [28]: > 100 µM
